By pIC50 is commonly meant the negative decadic logarithm of the IC50, by convention in mol/L.

The values that follow come from US10385036B2, “Sulfonamide-substituted indole modulators of RORC2 and methods of use thereof” (Pfizer Inc., priority 2015, dated 2019).

Assay [1] has as its system IL-17 production from human Th17 cells. As to the kind of experiment: Assay of IL-17 production from human Th17 cells. In kind it is cell-based. The note with it: 144 h. Here is the method:
The activity of compound of the invention can be also be determined by an IL-17 production from human Th17 cells assay. In general, this assay measures blockade of IL-17 production, the signature cytokine of T helper 17 (Th17) cells, by compounds. Purified human CD4+ T cells are stimulated with anti-CD3+anti-CD28 and incubated with a cytokine cocktail that induce their differentiation into Th17 in the absence or presence of various concentrations of compound. After 6 days, IL-17A concentration is measured in the cell culture supernatant with an ELISA kit (MSD).
Preparation of human CD4+ T cells. CD4+ T cells were purified from buffy coats from healthy donors (obtained from Massachusetts General Hospital) by negative selection the following procedure: Mixing 25 mL of blood with 1 mL of Rosette Sep CD4+ T cell enrichment cocktail (StemCell Technologies) followed by application of a layer of 14 mL Ficoll Paque Plus (Amersham GE Healthcare) and subsequent centrifugation at 1200 g for 20 min at room temperature. The Ficoll layer was then harvested and washed with phosphate saline buffer containing 2% (v/v) fetal bovine serum and cells were resuspended with RPMI medium containing 10% (v/v) fetal bovine serum and 10% (v/v) DMSO, frozen and kept in LN2 until used.
[…] Serial dilutions of compounds of the invention are prepared at 10× final concentration in X-Vivo15 medium containing 3% (v/v) DMSO.
On the second day of the assay, a 384-well tissue culture plate was coated with 10 μg/mL anti-hCD3 (eBioscience) at 50 μL/well. After 2 hr at 37° C., the supernatant is discarded and the coated plates are kept in a sterile tissue culture hood.
The cytokine plus anti-CD28 cocktail with CD4+ cells is prepared such that the cocktail is diluted 10-fold and cell density is 0.22×10^6/mL. The mixture is incubated 1 hr at 37° C.
90 μL (20,000 cells) dispensed per well in the anti-hCD3 coated plate prepared as noted above.
10 μL 10× compound is added per well (final DMSO=0.3%) from the compound plate that was previously prepared, followed by 6 days of incubation in a tissue culture vessel in a humidified chamber at 37° C. and 5% CO2.
Measurement is carried out in a Sector Imager 6000 by the same manufacturer. Signal units from the instrument are converted to pg/mL using a calibration curve with known amounts of IL-17A. IC50 values of test compounds (Table 2) are determined by the non-linear regression analysis of dose response curves.

Assay [2] concerns the target RORC2 ligand binding domain (6-His-RORC2 LBD) (Homo sapiens (Human), UniProt P51449). As to the kind of experiment: Assay of co-activator recruitment by TR-FRET. In kind it is biochemical. Conditions: 6-His-RORC2 LBD / biotin-coactivator peptide SRC1-2 interaction, 3 hr room temperature. Here is the method: The activity of compound of the invention can be determined by a co-activator recruitment by TR-FRET (time-resolved fluorescence resonance energy transfer) assay. […] When receptor and coactivator are bound to each other, upon shining light at 337 nm on the sample, the Europium emits fluorescence that excites APC due to close proximity (FRET) and this signal is measured at 665 nm. Due to the long lasting fluorescence emission of Europium, the non-specific, short-lived fluorescence is time-resolved (TR) from the fluorescence of interest. Inhibitors of the interaction of receptor and coactivator peptide are detected by a decrease in TR-FRET signal.
Specifically, in one embodiment the aforementioned assay was performed as outlined below. The assay was carried out in black polystyrene, 384-well plates in a total assay volume of 50.5 μL. The assay buffer contained 50 mM TRIS-HCL pH 7.5, 1 mM NaCl, 2 mM MgCl2, 0.5 mg/mL bovine serum albumin, and 5 mM dithiothreitol.
A general note: Time-resolved FRET reads energy transfer from a long-lived donor to a nearby acceptor.

The mark [3] stands for this setting: IL-17A in supernatant by ELISA (MSD) after 6 days, human CD4+ T cells differentiated into Th17, read-out: IC50.

Structures are written as SMILES. pIC50: −log10 of the molar value. Read-outs that look alike come from different tables or passages of the source.

Chain of RORC2 ligand binding domain (6-His-RORC2 LBD) (P51449 269-508): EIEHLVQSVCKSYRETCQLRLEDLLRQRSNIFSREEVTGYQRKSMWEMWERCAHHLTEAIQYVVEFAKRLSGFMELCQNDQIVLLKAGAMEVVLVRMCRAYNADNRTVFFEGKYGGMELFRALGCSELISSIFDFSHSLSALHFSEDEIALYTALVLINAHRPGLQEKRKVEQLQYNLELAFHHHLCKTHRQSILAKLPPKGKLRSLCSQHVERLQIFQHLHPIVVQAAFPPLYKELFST

Regarding `C[C@H]1CN(C(=O)C2CCCC2)CC[C@H]1c1cn(C)c2ccc(NS(=O)(=O)c3ccc(F)cc3)cc12` (single isomer, unassigned) [Example 3], in assay [1] (Homo sapiens, CD4+ T), the pIC50 is 6.92. The same measure, in the same setting: the value for `C[C@@H]1CN(C(=O)C2CCCC2)CC[C@@H]1c1cn(C)c2ccc(NS(=O)(=O)c3ccc(F)cc3)cc12` (single isomer, unassigned) [Example 4] was 6.86.

Consider `CC(C)C(=O)N1CC[C@@H](c2cn(C)c3ccc(NS(=O)(=O)c4ccc(F)cc4)cc23)[C@@H](C)C1` (single isomer, unassigned) [Example 5], for which the pIC50 in assay [2] is 8.29; in assay [1] (setting [3]) it was 7.04. Taken in the same sequence, the figures for `CC(C)C(=O)N1CC[C@@H](c2cn(C)c3ccc(NS(=O)(=O)c4ccc(F)cc4)cc23)CC1(C)C` (single isomer, unassigned) [Example 18] were 8.15 and 7.72. The like results for `Cn1cc([C@@H]2CCN(C(=O)C3CCCC3)C(C)(C)C2)c2cc(NS(=O)(=O)c3ccc(F)cc3)ccc21` (single isomer, unassigned) [Example 19] were, in that order, 8.43 and 6.72. Turning to `Cc1nn(C)c(C)c1S(=O)(=O)Nc1ccc2c(c1)c([C@@H]1CCN(C(=O)[C@H](C)C3CCCC3)C[C@@H]1C)cn2C` (single isomer, unassigned) [Example 32], the negative-log IC50 (pIC50) is 8.60 in assay [2] and 8.48 in assay [1] (setting [3]). The like results for `CCOc1ccccc1S(=O)(=O)Nc1ccc2c(c1)c([C@@H]1CCN(C(=O)[C@H](C)C3CCCC3)C[C@@H]1C)cn2C` (single isomer, unassigned) [Example 33] were, in that order, 8.96 and 8.08. Molecule `C[C@@H](C(=O)N1CC[C@@H](c2cn(C)c3ccc(NS(=O)(=O)c4ccccc4F)cc23)[C@@H](C)C1)C1CCCC1` (single isomer, unassigned) [Example 34] had a pIC50 in assay [1] (Homo sapiens, CD4+ T) of 8.38. Same read-out and setting: under `Cc1ccc(F)c(S(=O)(=O)Nc2ccc3c(c2)c([C@@H]2CCN(C(=O)[C@H](C)C4CCCC4)C[C@@H]2C)cn3C)c1` (single isomer, unassigned) [Example 35] stands 8.08.

Take `C[C@H]1CN(C(=O)[C@H](C)C(C)(C)C)CC[C@H]1c1cn(C)c2ccc(NS(=O)(=O)c3ccc(F)cc3)cc12` [Example 1, 4-fluoro-N-(1-methyl-3-((3R,4R)-3-methyl-1-((R)-2,3,3-trimethylbutanoyl)piperidin-4-yl)-1H-indol-5-yl)benzenesulfonamide]: the pIC50 in assay [2] was 8.09; in assay [1] (setting [3]), 7.87. In assay [1] (Homo sapiens, CD4+ T), `C[C@@H](C(=O)N1CC[C@@H](c2cn(C)c3ccc(NS(=O)(=O)c4ccc(F)cc4)cc23)[C@@H](C)C1)C1CCCC1` [Example 2, N-(3-((3R,4R)-1-((R)-2-cyclopentylpropanoyl)-3-methylpiperidin-4-yl)-1-methyl-1H-indol-5-yl)-4-fluorobenzenesulfonamide] had a negative logarithm of the IC50 (pIC50) of 8.32. For the molecule `Cn1cc(C2CCN(C(=O)c3ccns3)CC2)c2cc(NS(=O)(=O)c3ccc(F)cc3)ccc21` [Example 6, 4-fluoro-N-(3-(1-(isothiazole-5-carbonyl)piperidin-4-yl)-1-methyl-1H-indol-5-yl)benzenesulfonamide], the figures for the negative logarithm of the IC50 (pIC50) in assay [2] and in assay [1] (setting [3]) were 7.12 and 6.56, respectively. With `C[C@@H](C(=O)N1CCC(c2cn(C)c3ccc(NS(=O)(=O)c4ccc(F)cc4)cc23)CC1)C1CCCC1` [Example 7, (R)-N-(3-(1-(2-cyclopentylpropanoyl)piperidin-4-yl)-1-methyl-1H-indol-5-yl)-4-fluorobenzenesulfonamide], the results for the negative-log IC50 (pIC50) in assay [2] and in assay [1] (setting [3]) were 8.35 and 7.55, respectively. Regarding `Cn1cc(C2CCN(C(=O)C3CC3)CC2)c2cc(NS(=O)(=O)c3ccc(F)cc3)ccc21` [Example 8, N-(3-(1-(cyclopropanecarbonyl)piperidin-4-yl)-1-methyl-1H-indol-5-yl)-4-fluorobenzenesulfonamide], the figures for the pIC50 in assay [2] and in assay [1] (setting [3]) were 7.77 and 6.74, respectively. In the case of `CC(CC(=O)N1CCC(c2cn(C)c3ccc(NS(=O)(=O)c4ccc(F)cc4)cc23)CC1)C(F)(F)F` (centres unmarked) [Example 9, 4-fluoro-N-(1-methyl-3-(1-(4,4,4-trifluoro-3-methylbutanoyl)piperidin-4-yl)-1H-indol-5-yl)benzenesulfonamide], the values for the pIC50 in assay [2] and in assay [1] (setting [3]) were 7.83 and 7.00, respectively. The molecule `C[C@@H](C(=O)N1CCC(c2cn(C)c3ccc(NS(=O)(=O)c4ccc(F)cc4)cc23)CC1)C(C)(C)C` [Example 10, (R)-4-fiuoro-N-(1-methyl-3-(1-(2,3,3-trimethylbutanoyl)piperidin-4-yl)-1H-indol-5-yl)benzenesulfonamide] had a pIC50 in assay [1] (Homo sapiens, CD4+ T) of 7.54. On to `Cn1cc(C2CCN(C(=O)C3CCCCC3)CC2)c2cc(NS(=O)(=O)c3ccc(F)cc3)ccc21` [Example 14, N-(3-(1-(cyclohexanecarbonyl)-piperidin-4-yl)-1-methyl-1H-indol-5-yl)-4-fluorobenzenesulfonamide], for which, in assay [1] (Homo sapiens, CD4+ T), the pIC50 is 6.66. Molecule `C[C@H]1C[C@@H](c2cn(C)c3ccc(NS(=O)(=O)c4ccc(F)cc4)cc23)CCN1C(=O)C1CCCC1` [Example 20, N-(3-((2S,4S)-1-(cyclopentanecarbonyl)-2-methylpiperidin-4-yl)-1-methyl-1H-indol-5-yl)-4-fluorobenzenesulfonamide] gave a pIC50 in assay [1] (Homo sapiens, CD4+ T) of 6.20.

The molecule `C[C@H]1C[C@H](c2cn(C)c3ccc(NS(=O)(=O)c4ccc(F)cc4)cc23)CCN1C(=O)C1CCCC1` [Example 21, N-(3-((2S,4R)-1-(cyclopentanecarbonyl)-2-methylpiperidin-4-yl)-1-methyl-1H-indol-5-yl)-4-fluorobenzenesulfonamide] showed a pIC50 in assay [1] (Homo sapiens, CD4+ T) of 7.05. The same measure, in the same setting: under `CC(C)C(=O)N1CCC(c2cn(C)c3ccc(NS(=O)(=O)c4ccc(F)c(O)c4)cc23)CC1` [Example 23, 4-fluoro-3-hydroxy-N-(3-(1-isobutyrylpiperidin-4-yl)-1-methyl-1H-indol-5-yl)benzenesulfonamide] stands 5.84; under `CC(C)C(=O)N1CCC(c2cn(C)c3ccc(NS(=O)(=O)c4ccc(F)c(O[C@@H]5CCOC5)c4)cc23)CC1` [Example 24, (R)-4-fluoro-N-(3-(1-isobutyrylpiperidin-4-yl)-1-methyl-1H-indol-5-yl)-3-((tetrahydrofuran-3-yl)oxy)benzenesulfonamide], 7.16; under `Cc1ccc(S(=O)(=O)Nc2ccc3c(c2)c(C2CCN(C(=O)[C@H](C)C(C)(C)C)CC2)cn3C)cc1` [Example 25, (R)-4-methyl-N-(1-methyl-3-(1-(2,3,3-trimethylbutanoyl)piperidin-4-yl)-1H-indol-5-yl)benzenesulfonamide], 7.97. `CCOc1ccccc1S(=O)(=O)Nc1ccc2c(c1)c(C1CCN(C(=O)[C@H](C)C(C)(C)C)CC1)cn2C` [Example 27, (R)-2-ethoxy-N-(1-methyl-3-(1-(2,3,3-trimethylbutanoyl)piperidin-4-yl)-1H-indol-5-yl)benzenesulfonamide] showed a pIC50 in assay [1] (Homo sapiens, CD4+ T) of 7.80. In assay [1] (Homo sapiens, CD4+ T), `C[C@@H](C(=O)N1CCC(c2cn(C)c3ccc(NS(=O)(=O)c4ccccc4F)cc23)CC1)C(C)(C)C` [Example 28, (R)-2-fluoro-N-(1-methyl-3-(1-(2,3,3-trimethylbutanoyl)piperidin-4-yl)-1H-indol-5-yl)benzenesulfonamide] showed a pIC50 of 7.94. The molecule `C[C@@H](C(=O)N1CCC(c2cn(C)c3ccc(NS(=O)(=O)c4ccccc4)cc23)CC1)C(C)(C)C` [Example 29, (R)-N-(1-methyl-3-(1-(2,3,3-trimethylbutanoyl)piperidin-4-yl)-1H-indol-5-yl)benzenesulfonamide] gave a pIC50 in assay [1] (Homo sapiens, CD4+ T) of 7.55.
